The values that follow come from patent publication US11578087B2, “Oxaborole esters and uses thereof” (priority 2016, dated 2023).

Assay [1] deals with T. cruzi amastigote (Td Tomato-modified) in Vero cells. Briefly: In vitro IC50 measurement of T. cruzi amastigote killing using Td Tomato-modified T. cruzi. The following applies: Trypanosoma cruzi, 72 h, fluorescence, read-out: IC50: I Org. amastigote Growth T. cruzi 3 d. The assay is classed as cell-based. The method in brief:
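IC50/IC90 came from nonlinear regression of Day 3 minus Day 0 fluorescence (544/612 nm), correcting for input parasites. Final compound concentrations spanned 5 nM–5 uM on Td Tomato T. cruzi-infected Vero cells, 72 h at 37 °C.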

Assay [2] deals with IL3000 T. congolense (drug sensitive) strain. Briefly: In vitro Alamar Blue 72 h drug sensitivity assay for T. congolense. The assay is classed as cell-based, Trypanosoma congolense. The conditions noted are these: Trypanosoma congolense, 72 h, bloodstream form, 69 h + 3 h Resazurin, 34° C., read-out: IC50: I Org. Growth T. congolense 3 d. The method in brief:
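IC50 values derive from 11-point curves averaged over at least three independent runs, with fluorescence read at 536 nm excitation and 588 nm emission. Resazurin was added for a final 3 h after 69 h compound exposure of bloodstream forms (HMI medium, 20% bovine serum, 34° C, 5% CO2).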
In general terms: Alamar Blue is a resazurin reagent that responds to reducing activity.

Molecules are shown by their SMILES. Where only a bound is given, the exact number is not on record here.

Regarding `Cc1c(C(=O)N[C@H](C(=O)OCc2ccc(F)cn2)C(C)C)ccc2c1B(O)OC2` [Example 6-067, (5-Fluoropyridin-2-yl)methyl (1-hydroxy-7-methyl-1,3-dihydrobenzo[c][1,2]oxaborole-6-carbonyl)-L-valinate], the IC50 is ≤ 20 nM in assay [1] and < 0.5 nM in assay [2].

Regarding `CC(C)[C@H](NC(=O)c1ccc2c(c1C1CC1)B(O)OC2)C(=O)OCc1ccccc1` [Example 6-058, Benzyl (7-cyclopropyl-1-hydroxy-1,3-dihydrobenzo[c][1,2]oxaborole-6-carbonyl)-L-valinate], the IC50 in assay [1] was ≥ 1000 nM; in assay [2] it was < 0.5 nM.

Take `Cc1c(C(=O)N[C@H](C(=O)OCC2(O)CCCC2)C(C)C)ccc2c1B(O)OC2` [Example 6-220, (1-hydroxycyclopentyl)methyl (1-hydroxy-7-methyl-1,3-dihydrobenzo[c][1,2]oxaborole-6-carbonyl)-L-valinate]: the IC50 was ≤ 20 nM in assay [1] and 0.51 to 9.99 nM in assay [2].

For the compound `Cc1c(C(=O)N[C@H](C(=O)OCc2ccc(F)cc2)[C@@H](C)O)ccc2c1B(O)OC2` [Example 6-074, 4-Fluorobenzyl (1-hydroxy-7-methyl-1,3-dihydrobenzo[c][1,2]oxaborole-6-carbonyl)-L-threoninate], the values for the IC50 in assay [1] and in assay [2] were 21 to 999 nM and < 0.5 nM, respectively.

In the case of `Cc1c(C(=O)N[C@H](C(=O)OCCN2CCOCC2)C(C)C)ccc2c1B(O)OC2` [Example 6-170, 2-Morpholinoethyl (1-hydroxy-7-methyl-1,3-dihydrobenzo[c][1,2]oxaborole-6-carbonyl)-L-valinate], the results for the IC50 in assay [1] and in assay [2] were 21 to 999 nM and 0.51 to 9.99 nM, respectively.

For the compound `Cc1c(C(=O)N[C@H](C(=O)OCc2ccc(F)c(F)c2)C(C)(C)O)ccc2c1B(O)OC2` [Example 6-098, 3,4-Difluorobenzyl (S)-3-hydroxy-2-(1-hydroxy-7-methyl-1,3-dihydrobenzo[c][1,2]oxaborole-6-carboxamido)-3-methylbutanoate], the IC50 in assay [1] is ≤ 20 nM; in assay [2] it was < 0.5 nM.

As for `Cc1c(C(=O)N[C@H](C(=O)OCC2CCCO2)C(C)C)ccc2c1B(O)OC2` (stereo partly drawn) [Example 6-210, (tetrahydrofuran-2-yl)methyl (1-hydroxy-7-methyl-1,3-dihydrobenzo[c][1,2]oxaborole-6-carbonyl)-L-valinate], the figures for the IC50 in assay [1] and in assay [2] were ≤ 20 nM and < 0.5 nM, respectively.

`Cc1c(C(=O)N[C@H](C(=O)OCc2ccc(CN3CCOCC3)cc2)C(C)C)ccc2c1B(O)OC2` [Example 6-130, 4-(Morpholinomethyl)benzyl (1-hydroxy-7-methyl-1,3-dihydrobenzo[c][1,2]oxaborole-6-carbonyl)-L-valinate]: the figures for the IC50 in assay [1] and in assay [2] were 21 to 999 nM and < 0.5 nM, respectively.

Consider `Cc1c(C(=O)N[C@H](C(=O)OCc2ccc3ccccc3n2)C(C)C)ccc2c1B(O)OC2` [Example 6-125, Quinolin-2-ylmethyl (1-hydroxy-7-methyl-1,3-dihydrobenzo[c][1,2]oxaborole-6-carbonyl)-L-valinate], for which the IC50 was 21 to 999 nM in assay [1] and < 0.5 nM in assay [2].

In the case of `CC(C)[C@H](NC(=O)c1ccc2c(c1)B(O)OC2(C)C)C(=O)OCc1ccc(F)cc1` [Example 6-033, 4-Fluorobenzyl (1-hydroxy-3,3-dimethyl-1,3-dihydrobenzo[c][1,2]oxaborole-6-carbonyl)-L-valinate], the figures for the IC50 in assay [1] and in assay [2] were ≥ 1000 nM and 10 to 5000 nM, respectively.

With `Cc1c(C(=O)N[C@H](C(=O)OCc2ccc(F)cc2)C(C)C)ccc2c1B(O)OC2C` (stereo partly drawn) [Example 6-061, 4-Fluorobenzyl (3,7-dimethyl-1-hydroxy-1,3-dihydrobenzo[c][1,2]oxaborole-6-carbonyl)-L-valinate], the IC50 in assay [1] was in the range of 21 to 999 nM; in assay [2] it was 0.51 to 9.99 nM.

As to `Cc1c(C(=O)N[C@H](C(=O)OCCc2ccccn2)C(C)C)ccc2c1B(O)OC2` [Example 6-173, 2-(Pyridin-2-yl)ethyl (1-hydroxy-7-methyl-1,3-dihydrobenzo[c][1,2]oxaborole-6-carbonyl)-L-valinate], the IC50 in assay [1] is ≤ 20 nM; in assay [2], < 0.5 nM.

Usually IC50 stands for the concentration that inhibits the measured activity by half.
